Results reported in PubChem BioAssay AID256 (DTP/NCI, 2004).
“And” between values parts separate entries of the source, which are not always exact repeats. Identical values can stand only once. Toxic doses and inconclusive results are not listed. How the source made its calls: active means survival T/C of 150% or more; inactive means T/C below 125% in these data.

System: CD2F1 mice, L1210 leukemia ip, survival T/C
Test: NCI In Vivo Anticancer Drug Screen. Data for tumor model L1210 Leukemia (intraperitoneal) in CD2F1 (CDF1) mice
Conditions: higher = longer survival
Procedure, shortened: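 Vehicle-treated tumor-bearing mice served as controls (C) for compound-treated mice (T). Reported figure is T divided by C.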

[1] = endpoint: mean survival time, dose: 12.5 mg/kg/injection, schedule: Q01DX009 (ip), vehicle: water
[2] = endpoint: mean survival time, dose: 25.0 mg/kg/injection, schedule: Q01DX009 (ip), vehicle: water
[3] = endpoint: mean survival time, dose: 50.0 mg/kg/injection, schedule: Q01DX009 (ip), vehicle: water
[4] = endpoint: mean survival time, dose: 100.0 mg/kg/injection, schedule: Q01DX009 (ip), vehicle: water
[5] = endpoint: mean survival time, dose: 75.0 mg/kg/injection, schedule: Q01DX001 (ip), vehicle: saline
[6] = endpoint: mean survival time, dose: 100.0 mg/kg/injection, schedule: Q04DX002 (ip), vehicle: saline with Tween-80
[7] = endpoint: mean survival time, dose: 200.0 mg/kg/injection, schedule: Q04DX002 (ip), vehicle: saline with Tween-80
[8] = endpoint: mean survival time, dose: 100.0 mg/kg/injection, schedule: Q01DX009 (ip), vehicle: saline with Tween-80
[9] = endpoint: mean survival time, dose: 100.0 mg/kg/injection, schedule: Q04DX003 (ip), vehicle: saline with Tween-80
[10] = endpoint: mean survival time, dose: 200.0 mg/kg/injection, schedule: Q01DX009 (ip), vehicle: saline with Tween-80
[11] = endpoint: mean survival time, dose: 200.0 mg/kg/injection, schedule: Q04DX003 (ip), vehicle: saline with Tween-80
[12] = endpoint: mean survival time, dose: 400.0 mg/kg/injection, schedule: Q04DX003 (ip), vehicle: saline with Tween-80
[13] = endpoint: mean survival time, dose: 400.0 mg/kg/injection, schedule: Q01DX009 (ip), vehicle: saline with Tween-80
[14] = endpoint: mean survival time, dose: 50.0 mg/kg/injection, schedule: Q01DX009 (ip), vehicle: saline with Tween-80

Measured: T/C

CC1(C)N=C(N)N=C(N)N1c1ccc(OCCOc2ccc(NC(=O)CBr)cc2)cc1
inactive: endpoint: mean survival time, dose: 176.0 mg/kg/injection, schedule: Q01DX006 (ip), vehicle: other 118 % of control | endpoint: mean survival time, dose: 266.0 mg/kg/injection, schedule: Q01DX006 (ip), vehicle: other 124 % of control | endpoint: mean survival time, dose: 600.0 mg/kg/injection, schedule: Q01DX006 (ip), vehicle: other 94 % of control

C1CNCCNCCNCCN1
inactive: [1] 100 % of control | [2] 100 % of control | [3] 96 % of control | [4] 94 % of control

COC(=O)/C(C#N)=C(\C)CC(C)C
inactive: [5] 100 % of control | endpoint: mean survival time, dose: 150.0 mg/kg/injection, schedule: Q01DX001 (ip), vehicle: saline 94 % of control

O=c1[nH]c(N[N+](=O)[O-])nc(-c2ccccc2)c1Br
inactive: [6] 103 % of control | [7] 100 % of control | endpoint: mean survival time, dose: 400.0 mg/kg/injection, schedule: Q04DX002 (ip), vehicle: saline with Tween-80 92 % of control

Cc1cc2oc(=O)cc(O)c2c(=O)o1
inactive: [8] 96 % of control | [9] 94 % of control | [10] 96 % of control | [11] 97 % of control | [12] 98 % of control

S=C(N/N=C1/CCCC/C1=N/NC(=S)N1CCOCC1)N1CCOCC1
inactive: endpoint: median survival time, dose: 1.5 mg/kg/injection, schedule: Q01DX009 (ip), vehicle: saline with Tween-80 95 % of control | endpoint: median survival time, dose: 3.0 mg/kg/injection, schedule: Q01DX009 (ip), vehicle: saline with Tween-80 96 % of control | endpoint: median survival time, dose: 6.0 mg/kg/injection, schedule: Q01DX009 (ip), vehicle: saline with Tween-80 108 % of control | endpoint: median survival time, dose: 12.0 mg/kg/injection, schedule: Q01DX009 (ip), vehicle: saline with Tween-80 109 % of control

COC(=O)CCCNC(C)C
inactive: [1] 101 % of control | [2] 95 % of control | [3] 102 % of control | [4] 95 % of control | endpoint: mean survival time, dose: 200.0 mg/kg/injection, schedule: Q01DX009 (ip), vehicle: water 102 % of control

Cc1ccc(S(=O)(=O)NC(=O)OCCc2c3ccccc3nc3ccccc23)cc1
inactive: endpoint: mean survival time, dose: 100.0 mg/kg/injection, schedule: Q04DX002 (ip), vehicle: other 97 % of control | [6] 97 % of control | endpoint: mean survival time, dose: 200.0 mg/kg/injection, schedule: Q04DX002 (ip), vehicle: other 97 % of control | [7] 109 % of control

Cc1ccc(C(=O)c2ccc(C)cc2)cc1
inactive: endpoint: mean survival time, dose: 100.0 mg/kg/injection, schedule: Q01DX009 (ip), vehicle: saline 90 % of control | endpoint: mean survival time, dose: 100.0 mg/kg/injection, schedule: Q04DX002 (ip), vehicle: saline 93 % of control | endpoint: mean survival time, dose: 200.0 mg/kg/injection, schedule: Q01DX009 (ip), vehicle: saline 93 % of control | endpoint: mean survival time, dose: 200.0 mg/kg/injection, schedule: Q04DX002 (ip), vehicle: saline 95 % of control | endpoint: mean survival time, dose: 400.0 mg/kg/injection, schedule: Q01DX009 (ip), vehicle: saline 93 % of control | endpoint: mean survival time, dose: 400.0 mg/kg/injection, schedule: Q04DX002 (ip), vehicle: saline 95 % of control

CCC/C=C\CC(C)C(C)CC (stereo not given)
inactive: endpoint: mean survival time, dose: 100.0 mg/kg/injection, schedule: Q04DX003 (ip), vehicle: saline 101 % of control | endpoint: mean survival time, dose: 200.0 mg/kg/injection, schedule: Q04DX003 (ip), vehicle: saline 108 % of control | endpoint: mean survival time, dose: 400.0 mg/kg/injection, schedule: Q04DX003 (ip), vehicle: saline 104 % of control

CC1(C)CC2(OC2c2ccccc2)C(C)(O)c2ccccc21 (stereo not given)
inactive: endpoint: mean survival time, dose: 100.0 mg/kg/injection, schedule: Q01DX009 (ip), vehicle: other 105 % of control | endpoint: mean survival time, dose: 200.0 mg/kg/injection, schedule: Q01DX009 (ip), vehicle: other 113 % of control | endpoint: mean survival time, dose: 400.0 mg/kg/injection, schedule: Q01DX009 (ip), vehicle: other 104 % of control

COC(=O)c1ccc(Cl)nc1
inactive: endpoint: mean survival time, dose: 75.0 mg/kg/injection, schedule: Q04DX003 (ip), vehicle: saline with Tween-80 106 % of control | [8] 98 % of control | endpoint: mean survival time, dose: 150.0 mg/kg/injection, schedule: Q04DX003 (ip), vehicle: saline with Tween-80 106 % of control | [10] 97 % of control | endpoint: mean survival time, dose: 300.0 mg/kg/injection, schedule: Q04DX003 (ip), vehicle: saline with Tween-80 100 % of control | [13] 87 % of control

COC1OC(C(O)CO)C(O)C(O)C1O (stereo not given)
inactive: endpoint: mean survival time, dose: 100.0 mg/kg/injection, schedule: Q01DX001 (ip), vehicle: saline 105 % of control | [9] 104 % of control | endpoint: mean survival time, dose: 200.0 mg/kg/injection, schedule: Q01DX001 (ip), vehicle: saline 96 % of control | [11] 103 % of control | endpoint: mean survival time, dose: 400.0 mg/kg/injection, schedule: Q01DX001 (ip), vehicle: saline 102 % of control | [12] 98 % of control

O=C1NC(=O)C(c2ccc(Cl)cc2)N1 (stereo not given)
inactive: [8] 93 % of control | [10] 105 % of control | [13] 104 % of control

Cn1c(=O)c2c(nc(N3CCOCC3)n2CCCNCC(O)c2ccc(O)c(O)c2)n(C)c1=O (stereo not given)
inactive: endpoint: mean survival time, dose: 12.5 mg/kg/injection, schedule: Q01DX005 (ip), vehicle: water 102 % of control | endpoint: mean survival time, dose: 25.0 mg/kg/injection, schedule: Q01DX005 (ip), vehicle: water 96 % of control | endpoint: mean survival time, dose: 50.0 mg/kg/injection, schedule: Q01DX005 (ip), vehicle: water 97 % of control | endpoint: mean survival time, dose: 100.0 mg/kg/injection, schedule: Q01DX005 (ip), vehicle: water 96 % of control | endpoint: mean survival time, dose: 200.0 mg/kg/injection, schedule: Q01DX005 (ip), vehicle: water 92 % of control

Oc1ccc(N=Cc2ccccc2O)cc1
inactive: endpoint: mean survival time, dose: 178.0 mg/kg/injection, schedule: Q04DX003 (ip), vehicle: carboxymethylcellulose (CMC) 101 % of control | endpoint: mean survival time, dose: 267.0 mg/kg/injection, schedule: Q04DX003 (ip), vehicle: carboxymethylcellulose (CMC) 102 % of control | endpoint: mean survival time, dose: 400.0 mg/kg/injection, schedule: Q04DX003 (ip), vehicle: carboxymethylcellulose (CMC) 98 % of control | endpoint: mean survival time, dose: 600.0 mg/kg/injection, schedule: Q04DX003 (ip), vehicle: carboxymethylcellulose (CMC) 101 % of control

Clc1ccccc1C(Nc1cnccn1)Nc1cnccn1
inactive: endpoint: median survival time, dose: 25.0 mg/kg/injection, schedule: Q01DX009 (ip), vehicle: saline with Tween-80 97 % of control and 102 % of control | endpoint: median survival time, dose: 50.0 mg/kg/injection, schedule: Q01DX009 (ip), vehicle: saline with Tween-80 97 % of control and 110 % of control | endpoint: median survival time, dose: 100.0 mg/kg/injection, schedule: Q01DX009 (ip), vehicle: saline with Tween-80 108 % of control and 109 % of control | endpoint: median survival time, dose: 200.0 mg/kg/injection, schedule: Q01DX009 (ip), vehicle: saline with Tween-80 113 % of control and 124 % of control | endpoint: median survival time, dose: 400.0 mg/kg/injection, schedule: Q01DX009 (ip), vehicle: saline with Tween-80 92 % of control

CCCCCCCCCCCCCCCCCC[Se]CCCCCCCCCCCCCCCCCC
inactive: [8] 89 % of control | [10] 91 % of control | [13] 95 % of control

C[n+]1cccc(C(=O)N/N=C/CCc2ccccc2)c1
inactive: endpoint: mean survival time, dose: 12.5 mg/kg/injection, schedule: Q01DX009 (ip), vehicle: saline with Tween-80 92 % of control | endpoint: mean survival time, dose: 25.0 mg/kg/injection, schedule: Q01DX009 (ip), vehicle: saline with Tween-80 93 % of control | endpoint: mean survival time, dose: 25.0 mg/kg/injection, schedule: Q04DX002 (ip), vehicle: saline with Tween-80 100 % of control | [14] 97 % of control | endpoint: mean survival time, dose: 50.0 mg/kg/injection, schedule: Q04DX002 (ip), vehicle: saline with Tween-80 95 % of control | [8] 97 % of control | [6] 101 % of control | [7] 97 % of control

CCNCc1cc(Nc2cc(C)nc(/N=C(\N)Nc3ccc(Cl)c(Cl)c3)n2)ccc1OC
inactive: endpoint: mean survival time, dose: 25.0 mg/kg/injection, schedule: Q01DX009 (ip), vehicle: Klucel (hydroxypropylcellulose) (HPC) 100 % of control

COc1ccc(NC(=O)CC(C)=O)cc1
inactive: [8] 97 % of control | [10] 103 % of control | [13] 100 % of control

O=C(O)c1cc(Br)c(Br)s1
inactive: [9] 94 % of control | [11] 94 % of control

O=C1C(Br)=C(c2ccccc2)C(=O)C(Br)=C1c1ccccc1
inactive: endpoint: mean survival time, dose: 100.0 mg/kg/injection, schedule: Q04DX002 (ip), vehicle: Klucel (hydroxypropylcellulose) (HPC) 90 % of control | endpoint: mean survival time, dose: 200.0 mg/kg/injection, schedule: Q04DX002 (ip), vehicle: Klucel (hydroxypropylcellulose) (HPC) 86 % of control | endpoint: mean survival time, dose: 400.0 mg/kg/injection, schedule: Q04DX002 (ip), vehicle: Klucel (hydroxypropylcellulose) (HPC) 90 % of control

O=C(Nc1c(Cl)cccc1Cl)Oc1ccc(Br)cc1
inactive: [14] 103 % of control | [8] 103 % of control

O=C(Cl)c1ccccc1Sc1ccccc1
inactive: [9] 87 % of control

CCOC(=O)C(CCC(O)C#N)(CC(C)=O)C(=O)OCC (stereo not given)
inactive: [5] 100 % of control
